Values of other authors, collected in patent US20040109898A1, “Topical composition for heightened sensitivity” (priority 2002, published 2004).
Read-outs that look alike come from different tables or passages of the source.

How the values were obtained:
[1] = cold, heat, cooking, freezing

| Structure (SMILES) | detectable to the palate in dilutions of (palate) | Scoville Units rating (panel of individuals; individual capsaicinoid) [million Scoville Units] | Scoville Unit (SU) rating (panel of individuals; pure, individual capsaicinoids) [million SU] | stability / retention of potency [1] | solubility in alcohols, fats, and oils (alcohols, fats, and oils) | solubility in water (water) | Scoville Unit (SU) rating (panel of individuals) [million SU] |
| --- | --- | --- | --- | --- | --- | --- | --- |
| COc1cc(CNC(=O)CCCC/C=C/C(C)C)ccc1O [Capsaicin, 8-methyl-N-vanillyl-6-(E)-nonenamide] | one to seventeen million | 16 | 16 | seemingly unaffected by cold or heat, which retains its original potency despite time, cooking, or freezing | very soluble | slightly soluble |  |
| COc1cc(CNC(=O)CCCCC/C=C/C(C)C)ccc1O [Homocapsaicin, 9-methyl-N-vanillyl-7-(E)-decenamide] |  |  |  |  |  |  | 8.6 |
| COc1cc(CNC(=O)CCCCCCCC(C)C)ccc1O [Homodihydrocapsaicin, 9-methyl-N-vanillyl-decanamide] |  |  | 8.6 |  |  |  |  |
